Series [1] addresses Cyclin-dependent kinase 1 (Homo sapiens, UniProt P06493). Description: Inhibition of CDK1 (unknown origin) using U-light as substrate preincubated for 1 hr followed by EDTA addition measured after 1 hr by LANCE Ultra kinase assay. For orientation: TR-FRET usually uses a lanthanide donor and a delayed reading to cut background.
The target in series [2] is Cyclin-dependent kinase 6 (Homo sapiens, UniProt Q00534). Description: Inhibition of CDK6 (unknown origin) using U-light as substrate preincubated for 1 hr followed by EDTA addition measured after 1 hr by LANCE Ultra kinase assay.
Sequence of Cyclin-dependent kinase 6 (Q00534 whole entry): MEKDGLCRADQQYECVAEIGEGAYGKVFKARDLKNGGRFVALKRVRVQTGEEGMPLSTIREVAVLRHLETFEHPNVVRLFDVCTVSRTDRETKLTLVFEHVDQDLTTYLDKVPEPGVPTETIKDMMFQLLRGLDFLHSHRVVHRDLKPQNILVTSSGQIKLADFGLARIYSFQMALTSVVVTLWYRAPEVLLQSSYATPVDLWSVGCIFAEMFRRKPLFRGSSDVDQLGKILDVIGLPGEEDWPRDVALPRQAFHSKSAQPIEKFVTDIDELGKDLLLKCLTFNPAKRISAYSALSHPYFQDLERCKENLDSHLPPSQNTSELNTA
Series [3] relates to COLO 205. Description: Antiproliferative activity against human COLO205 cells after 96 hrs by CCK-8 assay. Type of series: functional, cell-based. As to conditions: COLO 205, 96 h. (In general: Formazan colour is commonly taken as a measure of viable cells.)
The target of series [4] is Cyclin-dependent kinase 4 (Homo sapiens, UniProt P11802). Description: Inhibition of CDK4 (unknown origin) using U-light as substrate preincubated for 1 hr followed by EDTA addition measured after 1 hr by LANCE Ultra kinase assay.
Sequence of Cyclin-dependent kinase 4 (P11802 whole entry): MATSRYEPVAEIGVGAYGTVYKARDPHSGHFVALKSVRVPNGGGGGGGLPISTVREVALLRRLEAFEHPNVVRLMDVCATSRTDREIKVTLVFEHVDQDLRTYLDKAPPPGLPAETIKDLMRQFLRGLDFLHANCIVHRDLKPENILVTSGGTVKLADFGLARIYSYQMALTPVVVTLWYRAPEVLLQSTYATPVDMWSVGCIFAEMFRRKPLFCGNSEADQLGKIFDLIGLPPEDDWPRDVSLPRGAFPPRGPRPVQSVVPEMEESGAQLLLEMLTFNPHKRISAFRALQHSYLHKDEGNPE
Series [5] deals with COLO 205. As to the kind of experiment: Antitumor activity against human COLO205 cells xenografted in nude BALB/c mouse assessed as tumor volume at 100 mg/kg, po administered once daily for 3 weeks measured twice per week relative to control. Type of series: functional.
Series [6] in a line: Volume of distribution at steady state in ICR mouse at 1 mg/kg, iv. As to conditions: in vivo, read-out: Vdss. Type of series: ADME, organism-based.
Series [7] is described as follows: AUC in ICR mouse at 1 mg/kg, iv. Type of series: ADME, organism-based. As to conditions: in vivo.
Series [8] is described as follows: Cmax in ICR mouse at 1 mg/kg, iv. The format is ADME, organism-based. Further details: dose 1 mg/kg, route intravenous. As to conditions: in vivo.
The nature of series [9]: Clearance in ICR mouse at 1 mg/kg, iv. As to conditions: in vivo. Type of series: ADME, organism-based.
The nature of series [10]: AUC in ICR mouse at 5 mg/kg, po. Type of series: ADME, organism-based. As to conditions: in vivo.
The next series has as its system Mus musculus. As to the kind of experiment: Toxicity in nude BALB/c mouse xenografted with human COLO205 cells assessed as change in body weight at 25 to 100 mg/kg, po administered once daily for 3 weeks. The format is organism-based. As to conditions: in vivo, 504 h. A general note: In xenograft studies the graft and the host belong to different species.
Series [11] has as its system COLO 205. Description: Antitumor activity against human COLO205 cells xenografted in nude BALB/c mouse assessed as tumor volume administered once daily for 3 weeks measured twice per week relative to control. The format is functional.
A short description of series [12]: Half life in ICR mouse at 1 mg/kg, iv. The format is ADME, organism-based. As to conditions: in vivo.
In series [13] the test system is COLO 205. As to the kind of experiment: Antitumor activity against human COLO205 cells xenografted in nude BALB/c mouse assessed as tumor volume at 25 mg/kg, po administered once daily for 3 weeks measured twice per week relative to control relative to control. The format is functional.
The nature of series [14]: Oral bioavailability in ICR mouse at 5 mg/kg. Type of series: ADME, organism-based. As to conditions: in vivo.

Each structure is given as a SMILES string.

Sequence of Cyclin-dependent kinase 1 (P06493 whole entry): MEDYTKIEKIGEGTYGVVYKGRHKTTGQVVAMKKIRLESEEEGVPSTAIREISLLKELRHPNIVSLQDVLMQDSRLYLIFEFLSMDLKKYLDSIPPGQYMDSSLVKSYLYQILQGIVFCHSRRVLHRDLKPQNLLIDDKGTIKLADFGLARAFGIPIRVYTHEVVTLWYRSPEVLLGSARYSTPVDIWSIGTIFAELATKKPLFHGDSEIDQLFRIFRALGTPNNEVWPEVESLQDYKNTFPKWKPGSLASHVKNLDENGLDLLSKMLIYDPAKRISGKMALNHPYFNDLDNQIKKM

A word on the IC50: it is the concentration needed to halve the response being measured. Higher therefore signals weaker potency in that assay. `Cc1nc2c(F)cc(-c3cc(Nc4cnc(CN5CCN(C(C)C)CC5)cn4)ncn3)cc2n1C(C)C`: the concentration for half-maximal inhibition (IC50) is 97.2 nM in series [1], 2.3 nM in [2], 140 nM with COLO 205 [3] and 1.6 nM in [4].

Regarding `CCN1CCN(Cc2cnc(Nc3cc(-c4cc(F)c5nc(C)n(C(C)C)c5c4)ncn3)nc2)CC1`, the figures for the IC50 (in [1]; in the series on COLO 205 [3]; in series [4]) were 20200 nM, 3740 nM and 35.9 nM, respectively.

As usually defined, the T/C is the ratio of treated to control. For `CCN1CCN(Cc2ccc(Nc3ncc(F)c(-c4cc(F)c5nc(C)n(C(C)C)c5c4)n3)nc2)CC1` [ABEMACICLIB], in the series with COLO 205 [5], the T/C came out at 3.95%. The same compound yielded a half-maximal inhibitory concentration (IC50) in the series with COLO 205 [3] of 460 nM.

By AUC is commonly meant concentration integrated over time. A higher AUC goes with high exposure. What is called Cmax is the maximum level reached in the sampled fluid or tissue. As usually defined, the clearance is the rate of elimination divided by the concentration. `CCN1CCN(Cc2cnc(Nc3cc(-c4cc(F)c5nc(C)n(C(C)C)c5c4)c(F)cn3)cn2)CC1`: the Vd in series [6] is 6.44 L/kg. The concentration for half-maximal inhibition (IC50) stood at 44 nM in series [1], 1.6 nM in series [2], 40 nM with COLO 205 [3] and 1.6 nM in [4]. In [7], this compound displayed an AUC of 425 ng·h/mL. The same compound displayed a Cmax in series [8] of 514 ng/mL. The clearance in series [9] came to 37.6 mL/min/kg.

Take `CCN1CCN(Cc2ccc(Nc3cc(-c4cc(F)c5nc(C)n(C(C)C)c5c4)ncn3)nc2)CC1`: the IC50 in series [1] amounted to 412 nM; in [2], 4.4 nM; in the series on COLO 205 [3] it was 260 nM; in series [4], 3.1 nM.

Turning to `Cc1nc2c(F)cc(-c3cc(Nc4cnc(CN5CCN(CC(F)(F)F)CC5)cn4)ncn3)cc2n1C(C)C`, the IC50 in [1] came out at 150 nM; in series [2], 5.8 nM; in the series on COLO 205 [3], 530 nM; in series [4], 5.6 nM.

As usually defined, the half-life is the time needed for the level to fall by half in the phase considered. Higher therefore signals slow loss. What is called bioavailability is dose-corrected exposure relative to a reference, in per cent. A higher bioavailability goes with good availability. As to `CCN1CCN(Cc2cnc(Nc3cc(-c4cc(F)c5nc(C)n(C(C)C)c5c4)ncn3)cn2)CC1`, the AUC came out at 2550 ng·h/mL in series [10] and 571 ng·h/mL in series [7]. The Activity result in the series with Mus musculus is “Non-Toxic”; in the series with COLO 205 [11], “Dose-dependent effect”. Besides, in [6], the Vd was 0.57 L/kg. Moreover, the IC50 in series [1] worked out at 136 nM; in series [2], 2.7 nM; in the series on COLO 205 [3] it was 210 nM; in series [4], 1.5 nM. Further, the peak level in series [8] (Cmax) was 998 ng/mL. Besides, the half-life in series [12] is 96 min. Moreover, the T/C in the series with COLO 205 [13] was found to be 54.21%; in the series on COLO 205 [5], 12.37%. The clearance in series [9] fell in the range of 20.8 to 28.8 mL/min/kg. Besides, the bioavailability in [14] came to 89.3%.

Take `Cc1nc2c(F)cc(-c3cc(Nc4cnc(CN5CCN(C6CCCC6)CC5)cn4)ncn3)cc2n1C(C)C`: the half-inhibitory concentration (IC50) in series [1] was 101 nM; in [2], 1.8 nM; in the series with COLO 205 [3], 160 nM; in [4], 2.2 nM.

For `CCN1CCN(Cc2ccc(Nc3cc(-c4cc(F)c5nc(C)n(C(C)C)c5c4)ccn3)nc2)CC1`, the IC50 turned out to be 301 nM in series [1], 2.9 nM in series [2], 140 nM with COLO 205 [3] and 2.9 nM in series [4].

Regarding `CCN1CCN(Cc2ccc(Nc3cc(-c4cc(F)c5nc(C)n(C(C)C)c5c4)c(F)cn3)nn2)CC1`, the values for the concentration for half-maximal inhibition (IC50) (in [1]; in the series with COLO 205 [3]; in series [4]) were 1670 nM, 630 nM and 12.1 nM, respectively.

For `CCN1CCC(Cc2cnc(Nc3cc(-c4cc(F)c5nc(C)n(C(C)C)c5c4)ncn3)cn2)CC1`, the IC50 is 134 nM in series [1], 2.9 nM in [2], 320 nM in the series with COLO 205 [3] and 2.4 nM in series [4].

With `Cc1nc2c(F)cc(-c3cc(Nc4cnc(CN5CCN(CC6CC6)CC5)cn4)ncn3)cc2n1C(C)C`, the half-maximal inhibitory concentration (IC50) in [1] came out at 103 nM; in [2], 2.2 nM; in the series on COLO 205 [3], 110 nM; in [4], 2.9 nM.

For the compound `CCN1CCN(Cc2cnc(Nc3cc(-c4cc(F)c5nc(C)n(C(C)C)c5c4)ccn3)cn2)CC1`, the IC50 turned out to be 35.8 nM in [1], 1.6 nM in series [2], 50 nM in the series on COLO 205 [3] and 2.1 nM in series [4].

`CCN1CCN(Cc2ncc(Nc3cc(-c4cc(F)c5nc(C)n(C(C)C)c5c4)ncn3)cn2)CC1`: in [4], the half-inhibitory concentration (IC50) is 5160 nM.

Take `CCN1CCC(C(C)c2cnc(Nc3cc(-c4cc(F)c5nc(C)n(C(C)C)c5c4)ncn3)cn2)CC1` (centres undefined): the IC50 in series [1] turned out to be 1410 nM; in the series with COLO 205 [3], 1510 nM; in [4], 18.3 nM.

Consider `CCN1CCC(Oc2cnc(Nc3cc(-c4cc(F)c5nc(C)n(C(C)C)c5c4)ncn3)cn2)CC1`, for which the IC50 turned out to be 231 nM in [1], 4 nM in series [2], 460 nM with COLO 205 [3] and 8.8 nM in series [4].

For the compound `CCN1CCN(Cc2ccc(Nc3cc(-c4cc(F)c5nc(C)n(C(C)C)c5c4)ccn3)nn2)CC1`, the IC50 in [1] was found to be 801 nM; in [2] it was 23.6 nM; in the series on COLO 205 [3], 340 nM; in series [4], 5.2 nM.

`CCN1CCN(Cc2cnc(Nc3ncnc(-c4cc(F)c5nc(C)n(C(C)C)c5c4)c3F)cn2)CC1`: the IC50 was 5600 nM in the series with COLO 205 [3] and 283 nM in series [4].

For the compound `CCN1CCN(Cc2ccc(Nc3cc(-c4cc(F)c5nc(C)n(C(C)C)c5c4)ncn3)nn2)CC1`, the results for the IC50 (in [1]; in the series on COLO 205 [3]; in series [4]) were 2430 nM, 520 nM and 13.8 nM, respectively.

As to `COCCN1CCN(Cc2cnc(Nc3cc(-c4cc(F)c5nc(C)n(C(C)C)c5c4)ncn3)cn2)CC1`, the concentration for half-maximal inhibition (IC50) in [1] was 140 nM; in series [2], 1.6 nM; in the series on COLO 205 [3], 140 nM; in series [4], 3.7 nM.

These data come from ChEMBL document CHEMBL4177628, “Discovery of a class of diheteroaromatic amines as orally bioavailable CDK1/4/6 inhibitors” (Bioorg Med Chem Lett, 2017).
